Literature values as cited in paper PMC7485629 (Biochemistry, 2019).
Read-outs that look alike come from different tables or passages of the source.

System: N-terminus of PD-L1
Conditions: crystal structure

SMILES | interaction with N-terminus of PD-L1 (ref [21]) | interaction with N-terminus of PD-L1 (ref [66])
COc1nc(OCc2cccc(-c3ccccc3)c2C)ccc1CNCCNC(C)=O [BMS-202] | water-mediated interaction with the backbone carbonyl of Phe19 | 
Cc1c(COc2cc(F)c(CNC[C@@H](O)CC(=O)O)cc2F)cccc1-c1ccc2c(c1)OCCO2 [BMS-200] |  | hydrogen bond with Thr20
